Assay [1] relates to blood-flow to the myocardium. As to the kind of experiment: Effect on blood-flow to the myocardium, anaesthetized dogs, intravenous. Type of assay: in vivo, dog. The method, then:
It was undertaken on anaesthetized dogs which received the substance under study by intravenous route. The intensity of the maximum effect on blood-flow to the myocardium was expressed in percentage of the corresponding value before injection. The time required for the maximum effect to decrease by 50% represented the duration of the effect. This time was measured in minutes.

In assay [2] the test system is epinephrine-increased blood-pressure (anti-α effect). Briefly: Antiadrenergic effect: anti-α effect (reduction of epinephrine-increased blood-pressure). Type of assay: in vivo. The conditions noted are these: dose 10 mg/kg i.v., dog; for inhibition in vivo at 10 mg/kg: Canis lupus familiaris, iv. The method, then:
(§1) The purpose of this test was to determine the capacity of the compounds under study to reduce epinephrine-increased blood-pressure (anti-α effect) and epinephrine-accelerated heart rate (anti-β effect) in the dog previously anaesthetized with pentobarbital and atropinized.
(§2) For each dog, the dose of epinephrine was first determined which provoked a reproductible increase by about 100 mm. Hg in the arterial pressure (between 5 and 10 μg/kg). After that, the dose of epinephrine so determined was administered followed by a dose by intravenous route of the compound to be studied. The percentage of reduction of the hypertension provoked by the compound under study in comparison with the hypertension previously obtained (about 100 mm. Hg) was then registered.
(§3) The percentage of reduction of the epinephrine-induced acceleration of heart-rate produced by the compound under study in comparison with the tachycardia previously measured (about 70 beats) was then registered. In both cases, the results were expressed as follows: […]
(§4) + for a <50%-reduction of the increase in pressure or cardiac frequency
(§5) ++ for a ≥50%-reduction of the increase in pressure or cardiac frequency
(§6) +++ for a subtotal reduction of the increase in pressure or cardiac frequency

Assay [3] relates to epinephrine-accelerated heart rate (anti-β effect). Briefly: Antiadrenergic effect: anti-β effect (reduction of epinephrine-accelerated heart rate). Type of assay: in vivo. The conditions noted are these: dose 10 mg/kg i.v., dog; for inhibition in vivo at 10 mg/kg: Canis lupus familiaris, iv. The method, then: as §1, §2, §3, §4, §5, §6
Where [4] appears, read: Canis lupus familiaris, iv, dose 10 mg/kg i.v., anaesthetized dog, read-out: Max. increase (blood-flow to the myocardium).
[5] abbreviates: dose 10 mg/kg i.v., anaesthetized dog.
Setting [6] is: Canis lupus familiaris, iv, dose 5 mg/kg i.v., anaesthetized dog, read-out: Max. increase (blood-flow to the myocardium).
[7] abbreviates: dose 5 mg/kg i.v., anaesthetized dog.
Where [8] appears, read: Canis lupus familiaris, iv, dose 8 mg/kg i.v., anaesthetized dog, read-out: Max. increase (blood-flow to the myocardium).
The mark [9] stands for this setting: dose 8 mg/kg i.v., anaesthetized dog.

Molecules are shown by their SMILES.

Take `CCCCc1oc2ccccc2c1C(=O)c1cc(I)c(OCCN(CC)CC)c(I)c1` [Amiodarone, reference compound]: the change in vivo at 10 mg/kg in assay [1] (setting [4]) was 36%. The “Coronarodilating effect / blood-flow to the myocardium, in words” value in assay [1] (comparative) is “cannot be regarded as a coronarodilator”. In addition, the “Time required to decrease to 50% (duration of effect)” value in assay [1] (setting [5]) came to 7 min. Also, the inhibition in vivo at 10 mg/kg in assay [2] and in assay [3] was more than 50% in each case.
Take `CCCN(CCC)CCCOc1ccc(C(=O)c2c(-c3ccccc3)c(Br)c3ccccn23)cc1Br` [Br/Br/H/drawing 11/n-C3H7/3, 1-Bromo-2-phenyl-3-[4-(3-di-n-propylaminopropyl)-oxy-3-bromo-benzoyl]-indolizine]: the change in vivo at 10 mg/kg in assay [1] (setting [4]) came out at 100%. In assay [1] (setting [5]), the “Time required to decrease to 50% (duration of effect)” value was 20 min.
On to `CCCCN(CCCC)CCCOc1ccc(C(=O)c2c(-c3cccc(Br)c3)c(Br)c3ccccn23)cc1Br` [Br/Br/H/drawing 12/n-C4H9/3], for which the change in vivo at 10 mg/kg in assay [1] (setting [4]) was found to be 150%. The “Time required to decrease to 50% (duration of effect)” value in assay [1] (setting [5]) was 100 min.
For `CCCc1c(Br)c2ccccn2c1C(=O)c1ccc(OCCCN(CCC)CCC)c(Br)c1` [Br/Br/H/n-C3H7/n-C3H7/3, 1-Bromo-2-n-propyl-3-[4-(3-di-n-propylaminopropyl)-oxy-3-bromo-benzoyl]-indolizine], in that order: 90% and 20 min.
For `CCCCc1c(Br)c2ccccn2c1C(=O)c1ccc(OCCCN(CCC)CCC)c(Br)c1` [Br/Br/H/n-C4H9/n-C3H7/3, 1-Bromo-2-n-butyl-3-[4-(3-di-n-propylaminopropyl)-oxy-3-bromo-benzoyl]-indolizine], in that order: 100% and 20 min.
In the same order, the values of `CCCCN(CCCC)CCCOc1ccc(C(=O)c2c(-c3ccccc3)c(Br)c3ccccn23)cc1Cl` [Br/Cl/H/drawing 17/n-C4H9/3] are 90% and 90 min.
For the molecule `CCCN(CCC)CCCOc1ccc(C(=O)c2c(-c3ccc(Br)cc3)c(Br)c3ccccn23)cc1Cl` [Br/Cl/H/drawing 18/n-C3H7/3], the change in vivo at 10 mg/kg in assay [1] (setting [4]) amounted to 50%. For the same molecule, the “Time required to decrease to 50% (duration of effect)” value in assay [1] (setting [5]) amounted to 50 min.
Turning to `CCCN(CCC)CCCOc1ccc(C(=O)c2c(-c3ccc(Cl)cc3)c(Br)c3ccccn23)cc1Cl` [Br/Cl/H/drawing 19/n-C3H7/3], the change in vivo at 10 mg/kg in assay [1] (setting [4]) was 63%. Besides, in assay [1] (setting [5]), the “Time required to decrease to 50% (duration of effect)” value is 45 min.
Take `CCCCN(CCCC)CCCOc1ccc(C(=O)c2c(C(C)C)c(Br)c3ccccn23)cc1Cl` [Br/Cl/H/iso-C3H7/n-C4H9/3, 1-Bromo-2-isopropyl-3-[4-(3-di-n-butylaminopropyl)-oxy-3-chloro-benzoyl]-indolizine]: the change in vivo at 5 mg/kg in assay [1] (setting [6]) was 133%. Further, the “Time required to decrease to 50% (duration of effect)” value in assay [1] (setting [7]) is 20 min.
Regarding `CCCN(CCC)CCCOc1ccc(C(=O)c2c(-c3cccc(Br)c3)c(Cl)c3ccccn23)cc1Cl` [Cl/Cl/H/drawing 21/n-C3H7/3, 1-Chloro-2-(3-bromo-phenyl)-3-[4-(3-di-n-propylaminopropyl)-oxy-3-chloro-benzoyl]-indolizine], in assay [1] (setting [8]), the change in vivo at 8 mg/kg is 70%. Also, the “Time required to decrease to 50% (duration of effect)” value in assay [1] (setting [9]) is 90 min.
Regarding `CCCN(CCC)CCCOc1ccc(C(=O)c2c(-c3ccc(Cl)cc3)c(Cl)c3ccccn23)cc1` [Cl/H/H/drawing 22/n-C3H7/3], the change in vivo at 5 mg/kg in assay [1] (setting [6]) was 50%. Further, the “Time required to decrease to 50% (duration of effect)” value in assay [1] (setting [7]) turned out to be 40 min.
As to `CCCCN(CCCC)CCCOc1ccc(C(=O)c2c(-c3ccc(Br)cc3)cc3ccccn23)cc1Br` [H/Br/H/drawing 13/n-C4H9/3], the change in vivo at 10 mg/kg in assay [1] (setting [4]) stood at 90%. Further, the “Time required to decrease to 50% (duration of effect)” value in assay [1] (setting [5]) was found to be 25 min.
Take `CCCCN(CCCC)CCCOc1ccc(C(=O)c2c(CCC)cc3ccccn23)cc1Br` [H/Br/H/n-C3H7/n-C4H9/3, 2-n-Propyl-3-[4-(3-di-n-butylaminopropyl)-oxy-3-bromo-benzoyl]-indolizine]: the change in vivo at 2 mg/kg in assay [1] (Canis lupus familiaris, iv, dose 2 mg/kg i.v., anaesthetized dog, read-out: Max. increase (blood-flow to the myocardium)) was 120%. The “Time required to decrease to 50% (duration of effect)” value in assay [1] (dose 2 mg/kg i.v., anaesthetized dog) was determined as 25 min.
As to `CCCCc1cc2ccccn2c1C(=O)c1ccc(OCCCN(CCCC)CCCC)c(C)c1` [H/CH3/H/n-C4H9/n-C4H9/3, 2-n-Butyl-3-[4-(3-di-n-butylaminopropyl)-oxy-3-methyl-benzoyl]-indolizine], the inhibition in vivo at 10 mg/kg in assay [2] and in assay [3] was more than 50% each time.
`CCCCN(CCCC)CCCOc1c(Cl)cc(C(=O)c2c(-c3ccc(Br)cc3)cc3ccccn23)cc1Cl` [H/Cl/Cl/drawing 14/n-C4H9/3]: the change in vivo at 10 mg/kg in assay [1] (setting [4]) stood at 45%. In addition, the “Time required to decrease to 50% (duration of effect)” value in assay [1] (setting [5]) was 15 min.
Regarding `CCCN(CCC)CCCOc1ccc(C(=O)c2c(CC)cc3ccccn23)cc1Cl` [H/Cl/H/C2H5/n-C3H7/3, 2-Ethyl-3-[4-(3-di-n-propylaminopropyl)-oxy-3-chloro-benzoyl]-indolizine], the inhibition in vivo at 10 mg/kg in assay [2] and in assay [3] was more than 50% throughout.
In the case of `CCCCN(CCCC)CCCOc1ccc(C(=O)c2c(-c3cccc(Br)c3)cc3ccccn23)cc1Cl` [H/Cl/H/drawing 15/n-C4H9/3], the change in vivo at 10 mg/kg in assay [1] (setting [4]) stood at 30%. The “Time required to decrease to 50% (duration of effect)” value in assay [1] (setting [5]) was 45 min.
In the case of `CCCN(CCC)CCCOc1ccc(C(=O)c2c(-c3cccc(Br)c3)cc3ccccn23)cc1Cl` [H/Cl/H/drawing 16/n-C3H7/3], the change in vivo at 8 mg/kg in assay [1] (setting [8]) was 45%. The “Time required to decrease to 50% (duration of effect)” value in assay [1] (setting [9]) came to 25 min.
For `CCCCN(CCCC)CCCOc1ccc(C(=O)c2c(-c3ccc(Br)cc3)cc3ccccn23)cc1Cl` [H/Cl/H/drawing 20/n-C4H9/3], in assay [1] (setting [4]), the change in vivo at 10 mg/kg was 60%. Moreover, in assay [1] (setting [5]), the “Time required to decrease to 50% (duration of effect)” value was found to be 25 min.
In the case of `CCCCN(CCCC)CCCOc1ccc(C(=O)c2c(-c3cccc(Br)c3)cc3ccccn23)cc1Cl` [H/Cl/H/drawing 25/n-C4H9/3], the inhibition in vivo at 10 mg/kg in assay [2] and in assay [3] was more than 50% each time.
For the molecule `CCCCN(CCCC)CCCOc1ccc(C(=O)c2c(-c3ccc(Br)cc3)cc3ccccn23)cc1Cl` [H/Cl/H/drawing 31/n-C4H9/3], the results for the inhibition in vivo at 10 mg/kg in assay [2] and in assay [3] were more than 50% and less than 50%, respectively.
`CCCCN(CCCC)CCCOc1ccc(C(=O)c2c(CC)cc3ccccn23)cc1OC` [H/OCH3/H/C2H5/n-C4H9/3, 2-Ethyl-3-[4-(3-di-n-butylaminopropyl)-oxy-3-methoxy-benzoyl]-indolizine]: the Anti-α effect result in assay [2] is on record as “+++”. The inhibition in vivo at 10 mg/kg in assay [3] is more than 50%.
Turning to `CCCN(CCC)CCCOc1ccc(C(=O)c2c(-c3ccccc3)c(OC)c3ccccn23)cc1Cl` [OCH3/Cl/H/drawing 43/n-C3H7/3, 1-Methoxy-2-phenyl-3-[4-(3-di-n-propylaminopropyl)-oxy-3-chloro-benzoyl]-indolizine], the Anti-α effect entry in assay [2] is “+++”. Besides, in assay [3], the Anti-β effect entry is “+++”.
Take `CCCN(CCC)CCCOc1ccc(C(=O)c2c(-c3ccccc3)c(OC)c3ccccn23)cc1OC` [OCH3/OCH3/H/drawing 44/n-C3H7/3]: the inhibition in vivo at 10 mg/kg in assay [2] and in assay [3] was more than 50% throughout.

Values taken from US4520026A, “Indolizine derivatives and use as cardiovascular agents” (S. A. Labaz N.V., priority 1982, dated 1985).
